How the values were obtained:
[1] = target: human A2A adenosine receptor (Homo sapiens, UniProt P29274); test: Radioligand binding, human A2A AR (Table 1)
[2] = target: T1, human A1 adenosine receptor (Homo sapiens, UniProt P30542); test: Radioligand binding, human A1 AR, CHO membranes (Table 1); details: species H (human); percent in parentheses, concentration not marked
T1 sequence (P30542 1-326): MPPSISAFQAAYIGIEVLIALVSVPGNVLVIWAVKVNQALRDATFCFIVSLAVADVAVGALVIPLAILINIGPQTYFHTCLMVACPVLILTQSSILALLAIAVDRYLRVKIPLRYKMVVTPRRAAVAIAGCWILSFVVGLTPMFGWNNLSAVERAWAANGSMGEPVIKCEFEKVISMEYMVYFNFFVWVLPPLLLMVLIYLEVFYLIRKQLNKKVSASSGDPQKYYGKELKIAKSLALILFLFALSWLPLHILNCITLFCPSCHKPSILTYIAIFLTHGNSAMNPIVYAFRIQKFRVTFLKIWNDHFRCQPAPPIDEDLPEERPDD

[3] = target: T2, human A3 adenosine receptor (Homo sapiens, UniProt P0DMS8); test: [125I]I-AB-MECA binding, human A3 AR, CHO membranes (Table 1); details: for Ki: A3 Ki, species H (human)
T2 sequence (P0DMS8 1-318): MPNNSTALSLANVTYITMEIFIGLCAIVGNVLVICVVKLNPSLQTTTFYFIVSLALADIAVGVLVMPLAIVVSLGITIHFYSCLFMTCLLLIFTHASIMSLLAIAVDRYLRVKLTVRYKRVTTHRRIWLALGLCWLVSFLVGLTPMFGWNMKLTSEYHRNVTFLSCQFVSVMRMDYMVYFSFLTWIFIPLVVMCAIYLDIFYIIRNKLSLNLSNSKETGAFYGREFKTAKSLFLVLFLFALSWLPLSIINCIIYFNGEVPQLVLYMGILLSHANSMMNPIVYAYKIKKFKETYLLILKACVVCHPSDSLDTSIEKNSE

[4] = target: mouse A2A adenosine receptor (Mus musculus, UniProt Q60613); test: Competition radioligand binding, mouse A2A AR, HEK293 membranes (Table 1); details: read-out: A2A % inhib.
Sequence of mouse A2A adenosine receptor (Q60613 whole entry): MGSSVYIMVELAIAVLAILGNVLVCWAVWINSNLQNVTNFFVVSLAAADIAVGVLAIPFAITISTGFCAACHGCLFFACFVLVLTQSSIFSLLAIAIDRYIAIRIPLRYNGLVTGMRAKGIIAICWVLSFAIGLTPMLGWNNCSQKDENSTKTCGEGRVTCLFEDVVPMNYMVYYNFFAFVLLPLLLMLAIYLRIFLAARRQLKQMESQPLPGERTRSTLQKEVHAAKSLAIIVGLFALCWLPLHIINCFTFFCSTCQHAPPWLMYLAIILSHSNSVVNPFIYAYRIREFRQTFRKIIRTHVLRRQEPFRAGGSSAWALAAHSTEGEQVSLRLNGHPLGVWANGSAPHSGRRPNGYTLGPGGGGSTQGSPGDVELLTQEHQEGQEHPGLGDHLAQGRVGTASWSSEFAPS

hA3AR = target: T3, hA3AR (Homo sapiens, UniProt P0DMS8); test: Binding at hA3AR, CHO membranes (Example 7); details: read-out: Affinity (Ki, nM) hA3
T3 construct: expressed in transfected cells; host or cells: CHO
T3 sequence (P0DMS8 1-318): T2 sequence (P0DMS8 1-318)

hA1AR = target: T4, hA1AR (Homo sapiens, UniProt P30542); test: Binding at hA1AR, CHO membranes (Example 7); details: read-out: % inhibition hA1
T4 construct: expressed in transfected cells; host or cells: CHO
T4 sequence (P30542 1-326): T1 sequence (P30542 1-326)

hA2AAR = target: T5, hA2AAR (Homo sapiens, UniProt P29274); test: Binding at hA2AAR, HEK-293 membranes (Example 7); details: for inhibition at 10 µM: read-out: % inhibition hA2A
T5 construct: expressed in transfected cells
T5 sequence (P29274 whole entry): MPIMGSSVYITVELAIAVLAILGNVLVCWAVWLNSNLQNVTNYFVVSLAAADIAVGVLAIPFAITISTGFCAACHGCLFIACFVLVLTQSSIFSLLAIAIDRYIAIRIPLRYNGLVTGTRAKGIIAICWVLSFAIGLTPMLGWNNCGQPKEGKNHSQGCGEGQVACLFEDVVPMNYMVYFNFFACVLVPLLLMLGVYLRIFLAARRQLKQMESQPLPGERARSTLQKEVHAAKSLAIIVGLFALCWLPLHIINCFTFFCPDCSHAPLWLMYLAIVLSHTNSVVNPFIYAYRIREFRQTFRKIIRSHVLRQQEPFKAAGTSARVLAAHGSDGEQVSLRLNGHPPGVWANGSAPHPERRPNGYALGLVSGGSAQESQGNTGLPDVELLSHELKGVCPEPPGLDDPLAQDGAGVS
Protocol: After harvesting, cells were homogenized and suspended in PBS.
Nonspecific binding was determined using a final concentration of 10 μM 51 diluted with the buffer.

Sequence of human A2A adenosine receptor (P29274 whole entry): as above

Compound | A1 % inhib. [2] | Ki [3] | Ki (hA3AR) | inhibition at 10 µM (hA1AR) | inhibition at 10 µM (hA2AAR) | also measured
CNC(=O)C12CC1C(n1cnc3c(NCc4cccc(Cl)c4)nc(C#CCCC(=O)NCCNCCN)nc31)C(O)C2O (stereo not shown) [Compound 41] | (14 ± 8%) | 15.4 ± 4.4 nM |  |  |  | Ki [1]: 890 ± 110 nM
CNC(=O)C12CC1C(n1cnc3c(NCc4cccc(Cl)c4)nc(C#CCCCC(=O)O)nc31)C(O)C2O (stereo not drawn) [Compound 7, (1′S,2′R,3′S,4′S,5′S)-4′-[6-(3-chlorobenzylamino)-2-(5-hydroxycarbonyl-1-pentynyl)-9-yl]-2′,3′-dihydroxybicyclo[3.1.0]hexane-1′-carboxylic acid N-methylamide] |  |  |  |  |  | inhibition at 10 µM ([1]; read-out: A2A % inhib.): 43%; inhibition at 100 µM [4]: 8%
CNC(=O)C12CC1C(n1cnc3c(NCc4cccc(Cl)c4)nc(C#CCCC(=O)NCCNC(=O)CCCCC4SCC5NC(=O)NC54)nc31)C(O)C2O (stereo not drawn) [Compound 42, (1′S,2′R,3′S,4′S,5′S)-4′-[6-(3-Chlorobenzylamino)-2-(N-biotinyl(β-aminoethylaminocarbonyl)-1-butynyl)-9-yl]-2′,3′-dihydroxybicyclo[3.1.0]hexane-1′-carboxylic acid N-methylamide] | (13 ± 6%) | 36.4 ± 5.6 nM |  |  |  | 
CNC(=O)C12CC1C(n1cnc3c(NCc4cccc(Cl)c4)nc(C#CCCC(=O)NCCN)nc31)C(O)C2O (stereo not drawn) [Compound 37, (1′S, 2′R, 3′S, 4′S, 5′S)-4′-[6-(3-Chlorobenzylamino) 2-(4-(β-aminoethylaminocarbonyl)-1-butynyl)-9-yl]-2′,3′-dihydroxybicyclo[3.1.0]hexane-1′-carboxylic acid N-methylamide] | (25 ± 12%) | 2.5 ± 0.5 nM |  |  |  | Ki [1]: 550 ± 83 nM; Selectivity A1/A3 ([3]; human): up to 1900
CNC(=O)C12CC1C(n1cnc3c(NCc4cccc(Cl)c4)nc(I)nc31)C(O)C2O (stereo not shown) [Compound 1] |  |  |  |  |  | Ki [1]: > 10000 nM; inhibition at 100 µM [4]: 40%
CCN1C(=CC=CC=CC2=[N+](CCCCCC(=O)NCCNC(=O)CCC#Cc3nc(NCc4cccc(Cl)c4)c4ncn(C5C(O)C(O)C6(C(=O)NC)CC56)c4n3)c3ccc(S(=O)(=O)[O-])cc3C2(C)C)C(C)(C)c2cc(S(=O)(=O)O)ccc21 (stereo not drawn) [Compound 44, (1′S,2′R,3′S,4′S,5′S)-4′-[6-(3-Chlorobenzylamino)-2-(N-Cyanine(β-aminoethylaminocarbonyl)-1-butynyl)-9-yl]-2′,3′-dihydroxybicyclo[3.1.0]hexane-1′-carboxylic acid N-methylamide] | (10 ± 4%) |  |  |  |  | 
CNC(=O)C12CC1C(n1cnc3c(NCc4cccc(Cl)c4)nc(C#CCCCCC(=O)O)nc31)C(O)C2O (stereo not shown) [Compound 34] | (5 ± 3%) | 12.4 ± 1.8 nM |  |  |  | 
CNC(=O)C12CC1C(n1cnc3c(NCc4cccc(Cl)c4)nc(C#CCCC(=O)NCCCN)nc31)C(O)C2O (stereo not drawn) [Compound 39, (1′S, 2′R, 3′S, 4′S, 5′S)-4′-[6-(3-Chlorobenzylamino)-2-(4-(β-aminopropylaminocarbonyl)-1-butynyl)-9-yl]-2′,3′-dihydroxybicyclo[3.1.0]hexane-1′-carboxylic acid N-methylamide] | (16 ± 4%) | 3.1 ± 0.4 nM |  |  |  | Ki [1]: 979 ± 181 nM
CNC(=O)[C@@]12C[C@@H]1[C@@H](n1cnc3c(NC)nc(C#Cc4cc5ccccc5c5ccccc45)nc31)[C@H](O)[C@@H]2O [Compound 326, (1S,2R,3S,4R,5S)-2,3-Dihydroxy-N-methyl-4-(6-(methylamino)-2-(phenanthren-9-ylethynyl)-9H-purin-9-yl)bicyclo[3.1.0]hexane-1-carboxamide] |  |  | 3.48 ± 1.36 nM | 15% | 52% | 
CNC(=O)[C@@]12C[C@@H]1[C@@H](n1cnc3c(NCc4cccc(Cl)c4)nc(C#Cc4ccc5ccc6cccc7ccc4c5c67)nc31)[C@H](O)[C@@H]2O [Compound 336, (1S,2R,3S,4R,5S)-4-(6-(3-Chlorobenzylamino)-2-(pyren-1-ylethynyl)-9H-purin-9-yl)-2,3-dihydroxy-N-methylbicyclo[3.1.0]hexane-1-carboxamide] |  |  | 68.3 ± 12.5 nM | 6% | 66% | 
CNC(=O)[C@@]12C[C@@H]1[C@@H](n1cnc3c(NC)nc(C#Cc4ccc(C(C)=O)cc4)nc31)[C@H](O)[C@@H]2O [Compound 323, (1S,2R,3S,4R,5S)-4-(2-((4-Acetylphenyl)ethynyl)-6-(methylamino)-9H-purin-9-yl)-2,3-dihydroxy-N-methylbicyclo[3.1.0]hexane-1-carboxamide] |  |  | 2.57 ± 0.78 nM | 8% | 62% | 
CNC(=O)[C@@]12C[C@@H]1[C@@H](n1cnc3c(NC)nc(C#Cc4ccccc4F)nc31)[C@H](O)[C@@H]2O [Compound 311, (1S,2R,3S,4R,5S)-4-(2-((2-Fluorophenyl)ethynyl)-6-(methylamino)-9H-purin-9-yl)-2,3-dihydroxy-N-methylbicyclo[3.1.0]hexane-1-carboxamide] |  |  | 0.97 ± 0.38 nM | 20% | 17% | 
CNC(=O)[C@@]12C[C@@H]1[C@@H](n1cnc3c(NC)nc(C#Cc4cccc5ccccc45)nc31)[C@H](O)[C@@H]2O [Compound 325, (1S,2R,3S,4R,5S)-2,3-Dihydroxy-N-methyl-4-(6-(methylamino)-2-(naphthalen-1-ylethynyl)-9H-purin-9-yl)bicyclo[3.1.0]hexane-1-carboxamide] |  |  | 1.67 ± 0.18 nM | 24% | 34% | 
CNC(=O)[C@@]12C[C@@H]1[C@@H](n1cnc3c(NC)nc(C#Cc4ccc(F)c(F)c4)nc31)[C@H](O)[C@@H]2O [Compound 319, (1S,2R,3S,4R,5S)-4-(2-((3,4-Difluorophenyl)ethynyl)-6-(methylamino)-9H-purin-9-yl)-2,3-dihydroxy-N-methylbicyclo[3.1.0]hexane-1-carboxamide] |  |  | 1.65 ± 0.08 nM | 6% | 6% | 

Second part, led by results:

A1 % inhib. [2] | Ki [3] | Ki (hA3AR) | inhibition at 10 µM (hA1AR) | inhibition at 10 µM (hA2AAR) | Compound | also measured
(21 ± 6%) | 3.4 ± 0.7 nM |  |  |  | CNC(=O)C12CC1C(n1cnc3c(NCc4cccc(Cl)c4)nc(C#CCCCCC(=O)NCCN)nc31)C(O)C2O (stereo not drawn) [Compound 38, (1′S,2′R,3′S,4′S,5′S)-4′-[6-(3-Chlorobenzylamino)-2-(6-(β-aminoethylaminocarbonyl)-1-hexynyl)-9-yl]-2′,3′-dihydroxybicyclo[3.1.0]hexane-1′-carboxylic acid N-methylamide] | Ki [1]: 277 ± 33 nM
 |  | 1.6 ± 0.6 nM | 11% |  | CNC(=O)[C@@]12C[C@@H]1[C@@H](n1cnc3c(NC)nc(C#Cc4cccc(Cl)c4)nc31)[C@H](O)[C@@H]2O [Compound 315, (1S,2R,3S,4R,5S)-4-(2-((3-Chlorophenyl)ethynyl)-6-(methylamino)-9H-purin-9-yl)-2,3-dihydroxy-N-methylbicyclo[3.1.0]hexane-1-carboxamide] | Ki (hA2AAR; read-out: Affinity (Ki, nM) hA2A): 1270 ± 300 nM
 |  | 10.1 ± 1.9 nM | 27% | 7% | CNC(=O)[C@@]12C[C@@H]1[C@@H](n1cnc3c(NC)nc(C#Cc4ccc(C(C)(C)C)cc4)nc31)[C@H](O)[C@@H]2O [Compound 322, (1S,2R,3S,4R,5S)-4-(2-((4-tert-Butylphenyl)ethynyl)-6-(methylamino)-9H-purin-9-yl)-2,3-dihydroxy-N-methylbicyclo[3.1.0]hexane-1-carboxamide] | 
 |  | 0.91 ± 0.06 nM | 11% | 26% | CNC(=O)[C@@]12C[C@@H]1[C@@H](n1cnc3c(NC)nc(C#Cc4ccc(Br)cc4)nc31)[C@H](O)[C@@H]2O [Compound 317, (1S,2R,3S,4R,5S)-4-(2-((4-Bromophenyl)ethynyl)-6-(methylamino)-9H-purin-9-yl)-2,3-dihydroxy-N-methylbicyclo[3.1.0]hexane-1-carboxamide] | 
 |  | 3.1 ± 1.26 nM | 20% | 29% | CNC(=O)[C@@]12C[C@@H]1[C@@H](n1cnc3c(NC)nc(C#Cc4ccc(-c5ccccc5)cc4)nc31)[C@H](O)[C@@H]2O [Compound 324, (1S,2R,3S,4R,5S)-4-(2-(Biphenyl-4-ylethynyl)-6-(methylamino)-9H-purin-9-yl)-2,3-dihydroxy-N-methylbicyclo[3.1.0]hexane-1-carboxamide] | 
 |  | 0.97 ± 0.24 nM | 14% | 10% | CNC(=O)[C@@]12C[C@@H]1[C@@H](n1cnc3c(NC)nc(C#Cc4cccc(F)c4)nc31)[C@H](O)[C@@H]2O [Compound 312, (1S,2R,3S,4R,5S)-4-(2-((3-Fluorophenyl)ethynyl)-6-(methylamino)-9H-purin-9-yl)-2,3-dihydroxy-N-methylbicyclo[3.1.0]hexane-1-carboxamide] | 

Source: patent publication US8916570B2 (The United States of America, as represented by the …, priority 2008, dated 2014)
